Experiments:
[1] = tested on: α-actin expression in MRC-5 cells; assay: MRC-5 fibrosis assay, TGF-β stimulated (Western blot); type: cell-based
Procedure: (§1) After 20 h growth in the reduced serum medium, the cells were treated with indicated doses of compounds for 30 minutes. Subsequently, the cells were stimulated with 10 ng/mL TGF-β (R&D Systems, 240-B-002) for 48 or 72 hours.

[2] = tested on: CTGF expression in MRC-5 cells; assay: as above; type: cell-based
Procedure: as §1

[3] = target: T1, CYP1A2 (Homo sapiens, UniProt P05177); assay: Cytochrome inhibition in HLM; type: in vitro ADME
T1 construct: from tissue; host or cells: human liver microsomes (HLM)
T1 sequence (P05177 1-516): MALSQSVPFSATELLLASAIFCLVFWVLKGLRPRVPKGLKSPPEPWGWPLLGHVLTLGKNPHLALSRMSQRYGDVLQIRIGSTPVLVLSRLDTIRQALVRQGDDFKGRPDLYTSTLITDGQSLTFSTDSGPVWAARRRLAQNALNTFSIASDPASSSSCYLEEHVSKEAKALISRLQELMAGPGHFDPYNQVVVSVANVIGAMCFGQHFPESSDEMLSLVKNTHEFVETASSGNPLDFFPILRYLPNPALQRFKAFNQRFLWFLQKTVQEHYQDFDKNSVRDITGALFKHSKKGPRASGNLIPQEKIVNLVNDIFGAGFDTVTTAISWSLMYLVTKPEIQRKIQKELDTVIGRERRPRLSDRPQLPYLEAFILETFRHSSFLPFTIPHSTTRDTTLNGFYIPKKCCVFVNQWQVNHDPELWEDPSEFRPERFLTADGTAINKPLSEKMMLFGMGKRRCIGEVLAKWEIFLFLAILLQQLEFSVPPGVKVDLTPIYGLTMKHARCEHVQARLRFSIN
Procedure: Water used in the assay and analysis was purified by ELGA Lab purification systems. Potassium phosphate buffer (PB) in concentration of 100 mM and MgCl2 in concentration of 33 mM were used. […] Microsomes were pulled out of the −80° C. freezer to thaw on ice, labeled the date and put back to freezer immediately after using. 20 μL of the substrates solutions were added to corresponding wells. 20 μL PB were added to Blank wells. 2 μL of the test compounds and positive control working solution were added to corresponding wells. Then, HLM working solution was prepared. 158 μL of the HLM working solution was added to all wells of incubation plate. The plate was pre-warmed for about 10 min at 37° C. water bath. Then, NADPH cofactor solution was prepared. 20 μL NADPH cofactor was added to all incubation wells. The solution was mixed and incubated for 10 minutes at 37° C. water bath. At the time point, the reaction was terminated by adding 400 μL cold stop solution (200 ng/mL Tolbutamide and 200 ng/mL Labetalol in ACN). The samples were centrifuged at 4000 rpm for 20 minutes to precipitate protein. 200 μL supernatant was transferred to 100 μL HPLC water and shaken for 10 min. XL fit was used to plot the percent of vehicle control versus the test compound concentrations, and for non-linear regression analysis of the data.

[4] = target: T2, hDDR2 (Homo sapiens, UniProt Q16832); assay: KinaseProfiler radiometric biochemical kinase assay (Eurofins)
T2 construct: purchased Eurofins
T2 sequence (Q16832 22-855): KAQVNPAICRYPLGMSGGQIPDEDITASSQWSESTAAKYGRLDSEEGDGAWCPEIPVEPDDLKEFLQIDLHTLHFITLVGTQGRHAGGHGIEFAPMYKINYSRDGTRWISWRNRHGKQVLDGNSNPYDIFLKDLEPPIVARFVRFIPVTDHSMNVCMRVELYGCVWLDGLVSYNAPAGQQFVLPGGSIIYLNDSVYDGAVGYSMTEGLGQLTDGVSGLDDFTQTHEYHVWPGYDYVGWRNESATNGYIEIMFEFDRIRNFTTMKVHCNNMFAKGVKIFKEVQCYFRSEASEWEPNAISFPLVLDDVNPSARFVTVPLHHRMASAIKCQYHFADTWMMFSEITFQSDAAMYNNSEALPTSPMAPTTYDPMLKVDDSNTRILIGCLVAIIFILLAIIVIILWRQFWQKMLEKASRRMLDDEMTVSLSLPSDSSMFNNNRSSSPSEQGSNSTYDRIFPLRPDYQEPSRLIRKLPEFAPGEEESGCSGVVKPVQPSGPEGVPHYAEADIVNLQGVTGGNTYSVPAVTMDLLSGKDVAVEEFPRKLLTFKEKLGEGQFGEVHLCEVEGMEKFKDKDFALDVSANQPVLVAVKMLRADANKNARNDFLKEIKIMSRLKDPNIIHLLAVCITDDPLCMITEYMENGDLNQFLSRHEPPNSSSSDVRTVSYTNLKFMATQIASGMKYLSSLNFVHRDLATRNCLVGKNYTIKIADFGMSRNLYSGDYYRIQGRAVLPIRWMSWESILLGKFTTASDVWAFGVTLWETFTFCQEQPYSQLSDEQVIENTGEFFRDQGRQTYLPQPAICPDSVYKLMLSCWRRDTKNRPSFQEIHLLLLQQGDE
Procedure: The experimental procedures were performed by Eurofins. The activity of the molecules against hDDR1 and hDDR2 kinases was assessed using KinaseProfiler^67. […] The enzymatic reaction processed in the presence of Mg^2+ cations and ATP at room temperature for 40 minutes and terminated by addition of phosphoric acid. […] All the compounds were prepared in 100% DMSO. […] The biological evaluation of selectivity against non-target kinases was performed in Dundee Eurofins, using Scan Max Delta Panel [10 μM ATP] KinaseProfiler^68.

[5] = tested on: LX-2 cells; assay: Cytotoxicity, CellTiter-Glo cell viability assay; type: cell-based, human; conditions: 72 h
Procedure: LX-2 cells were seeded into 96 well plates in the presence of a compound and allowed to grow for 72 h before CellTiter-Glo® Luminescent Cell Viability Assay was carried out according the manufacturer's instruction.

| activity towards DDR2 weaker than for DDR1 ([4]; DDR2 vs DDR1) | SMILES | dose dependence of effect on α-actin expression ([1]; MRC-5) | effect on CTGF expression ([2]; all the concentrations used) | IC50 [3] | CC50 [5] | concentration of maximum inhibition of α-actin expression ([1]; MRC-5) | maximum effect on α-actin expression ([1]; at 0.37 μM) | concentration of highest activity in CTGF assay (close to negative control) ([2]; MRC-5) | SI (selectivity index) DDR2 vs DDR1 [4] | IC50 ([4]; read-out: IC50 towards DDR2 kinase) |
| --- | --- | --- | --- | --- | --- | --- | --- | --- | --- | --- |
| 23 times | Cc1ccc2c(Nc3cccc(C(F)(F)F)c3)noc2c1C#Cc1cnc2cccnn12 [Compound 1] | robust dose-dependent effect | no inhibition potency | 7.36 µM | 3.3 µM | – | – | – | – | – |
| – | O=C(Nc1cccc(C(=O)N2CCN(c3ccnc4[nH]ccc34)C2)c1)c1cccc(C(F)(F)F)c1 [Compound 2] | – | – | 10.6 µM | 7.3 µM | 0.37 µM | 1.5 fold | 0.041 µM | 3.6 | 76 nM |
